How the values were obtained:
Test in all cases: relative viability (nuclei count vs DMSO), 5 days (fraction); higher = more cells survive
Bleomycin + Pemetrexed = compound: CC1=C(N=C(N=C1N)[C@H](CC(=O)N)NC[C@@H](C(=O)N)N)C(=O)N[C@@H]([C@H](C2=CN=CN2)OC3C(C(C(C(O3)CO)O)O)OC4C(C(C(C(O4)CO)O)OC(=O)N)O)C(=O)N[C@H](C)[C@H]([C@H](C)C(=O)N[C@@H]([C@@H](C)O)C(=O)NCCC5=NC(=CS5)C6=NC(=CS6)C(=O)NCCC[S+](C)C)O [Bleomycin] + Nc1nc2[nH]cc(CCc3ccc(C(=O)N[C@@H](CCC(=O)O)C(=O)O)cc3)c2c(=O)[nH]1 [Pemetrexed] (partner 0.2 µM); conditions: main component drawn
Summary of the method: (§1)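 Cells from lung cancer lines were seeded into 1536-well plates and, one day later, dosed by pin tool. Treatments were either a single drug or a fixed dose of an anchor drug with five library-drug doses (not always all listed) in √10 steps. After 5 days, nuclei were stained in a one-step fixation (final 0.05% Triton X-100, 1% formaldehyde, 1 ug/ml Hoechst) and counted on 4× images, and relative viability is the treated-to-vehicle nuclei ratio, as the median of duplicate plates.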

Etoposide + OSI-027 = compound: COc1cc([C@@H]2c3cc4c(cc3[C@@H](O[C@@H]3O[C@@H]5CO[C@@H](C)O[C@H]5[C@H](O)[C@H]3O)[C@H]3COC(=O)[C@H]23)OCO4)cc(OC)c1O [Etoposide] + COc1cccc2cc(-c3nc([C@H]4CC[C@H](C(=O)O)CC4)n4ncnc(N)c34)[nH]c12 [OSI-027] (partner 0.5 µM)
Summary of the method: as §1

Etoposide + Decitabine = compound: COc1cc([C@@H]2c3cc4c(cc3[C@@H](O[C@@H]3O[C@@H]5CO[C@@H](C)O[C@H]5[C@H](O)[C@H]3O)[C@H]3COC(=O)[C@H]23)OCO4)cc(OC)c1O [Etoposide] + Nc1ncn([C@H]2C[C@H](O)[C@@H](CO)O2)c(=O)n1 [Decitabine] (partner 2 µM)
Summary of the method: as §1

Etoposide + Olaparib = compound: COc1cc([C@@H]2c3cc4c(cc3[C@@H](O[C@@H]3O[C@@H]5CO[C@@H](C)O[C@H]5[C@H](O)[C@H]3O)[C@H]3COC(=O)[C@H]23)OCO4)cc(OC)c1O [Etoposide] + O=C(c1cc(Cc2n[nH]c(=O)c3ccccc23)ccc1F)N1CCN(C(=O)C2CC2)CC1 [Olaparib] (partner 8 µM)
Summary of the method: as §1

Cell Line | relative viability (Bleomycin + Pemetrexed; first compound 0.01 µM) | relative viability (Bleomycin + Pemetrexed; first compound 0.03162 µM) | relative viability (Bleomycin + Pemetrexed; first compound 0.1 µM) | relative viability (Bleomycin + Pemetrexed; first compound 0.3162 µM) | relative viability (Bleomycin + Pemetrexed; first compound 1 µM) | relative viability (Etoposide + OSI-027; first compound 0.01 µM) | relative viability (Etoposide + OSI-027; first compound 0.03162 µM) | relative viability (Etoposide + OSI-027; first compound 0.1 µM) | relative viability (Etoposide + OSI-027; first compound 0.3162 µM) | relative viability (Etoposide + OSI-027; first compound 1 µM) | relative viability (Etoposide + Decitabine; first compound 0.01 µM) | relative viability (Etoposide + Decitabine; first compound 0.03162 µM) | relative viability (Etoposide + Decitabine; first compound 0.1 µM) | relative viability (Etoposide + Decitabine; first compound 0.3162 µM) | relative viability (Etoposide + Decitabine; first compound 1 µM) | relative viability (Etoposide + Olaparib; first compound 0.01 µM) | relative viability (Etoposide + Olaparib; first compound 0.03162 µM) | relative viability (Etoposide + Olaparib; first compound 0.1 µM) | relative viability (Etoposide + Olaparib; first compound 0.3162 µM) | relative viability (Etoposide + Olaparib; first compound 1 µM)
LOU-NH91 | 0.423 | 0.38 | 0.368 | 0.315 | 0.271 | 0.723 | 0.794 | 0.493 | 0.71 | 0.612 | 0.783 | 0.876 | 0.778 | 0.766 | 0.54 | 0.893 | 0.905 | 0.824 | 0.651 | 0.383
NCI-H322M | 0.635 | 0.606 | 0.723 | 0.573 | 0.575 | 0.565 | 0.607 | 0.509 | 0.468 | 0.389 | 0.71 | 0.696 | 0.584 | 0.623 | 0.563 | 0.781 | 0.764 | 0.725 | 0.548 | 0.508
NCI-H520 | 0.731 | 0.757 | 0.653 | 0.443 | 0.446 | 0.253 | 0.209 | 0.204 | 0.292 | 0.286 | 0.532 | 0.493 | 0.519 | 0.424 | 0.376 | 0.296 | 0.328 | 0.437 | 0.293 | 0.225
NCI-H661 | 0.886 | 0.821 | 0.688 | 0.412 | 0.366 | 0.702 | 0.712 | 0.619 | 0.494 | 0.267 | 0.558 | 0.671 | 0.477 | 0.46 | 0.343 | 0.776 | 0.819 | 0.686 | 0.463 | 0.471
NCI-H1793 | 0.739 | 0.729 | 0.692 | 0.134 | 0.191 | 0.243 | 0.325 | – | 0.246 | 0.209 | – | 0.497 | 0.454 | 0.345 | 0.236 | – | 0.861 | 0.608 | 0.454 | 0.295
NCI-H1734 | 0.392 | 0.406 | 0.383 | 0.342 | 0.273 | 0.636 | 0.617 | 0.406 | 0.497 | 0.302 | 0.517 | 0.513 | 0.454 | 0.379 | 0.314 | 0.285 | 0.607 | 0.589 | 0.373 | 0.263
LXF-289 | 0.852 | 0.901 | 0.845 | 0.588 | 0.218 | 0.783 | 0.784 | 0.67 | 0.71 | 0.431 | 0.378 | 0.383 | 0.306 | 0.307 | 0.194 | 1.1 | 1.07 | 0.954 | 0.234 | 0.1
H3255 | 0.608 | 0.538 | 0.507 | 0.479 | 0.405 | 0.617 | 0.709 | 0.417 | 0.542 | 0.477 | 0.547 | 0.94 | 0.417 | 0.474 | 0.318 | 0.524 | 0.571 | 0.588 | 0.379 | 0.286
201T | 0.332 | 0.283 | 0.303 | 0.281 | 0.271 | 0.6 | 0.693 | 0.641 | 0.566 | 0.283 | 0.835 | 0.886 | 0.758 | 0.641 | 0.384 | 0.818 | 0.804 | 0.771 | 0.633 | 0.384
HOP-62 | 0.277 | 0.361 | 0.303 | 0.141 | 0.128 | 0.802 | 0.882 | 0.521 | 0.696 | 0.523 | 0.227 | 0.199 | 0.212 | 0.207 | 0.179 | 0.48 | 0.478 | 0.557 | 0.197 | 0.215
NCI-H596 | 0.474 | 0.46 | 0.465 | 0.305 | 0.332 | 0.695 | 0.831 | 0.467 | 0.56 | 0.546 | 0.826 | 1.05 | 1.09 | 1.01 | 0.857 | 0.64 | 0.698 | 0.724 | 0.537 | 0.561
NCI-H1755 | 0.529 | 0.442 | 0.426 | 0.381 | 0.415 | 0.69 | 0.659 | 0.609 | 0.641 | 0.585 | 0.795 | 0.731 | 0.712 | 0.622 | 0.553 | 0.838 | 0.945 | 0.791 | 0.799 | 0.422
NCI-H2023 | 0.178 | 0.204 | 0.157 | 0.136 | 0.0973 | 0.4 | 0.451 | 0.223 | 0.286 | 0.119 | 0.246 | 0.247 | 0.204 | 0.146 | 0.109 | 0.415 | 0.452 | 0.356 | 0.137 | 0.111
NCI-H2009 | 0.889 | 1.03 | 1.04 | 0.736 | 0.503 | 0.572 | 0.659 | 0.454 | 0.539 | 0.369 | 0.396 | 0.425 | 0.316 | 0.354 | 0.234 | 0.64 | 0.627 | 0.692 | 0.45 | 0.275
